Data set [1] in a line: hypoxic challenge test (12% oxygen, SpO2 by pulse oximeter). In kind it is in vivo, human. As for the experimental part: The hypoxic challenge test was conducted it the following manner: using face masks and air tanks containing 12% oxygen (compared to 21% oxygen in normal air at sea level), subjects inhaled the 12% hypoxic mixture for 5 minutes at a time just prior to starting the dose of study medication (5-HMF or placebo, double-blind) and then again at each of the time intervals 0.75, 2, 4 and 8 hours after the dose. A finger tip oxygen sensing probe connected to a pulse oximeter provided continuous measurement of SpO2 values (percentage of hemoglobin containing at least one oxygen molecule) and the SpO2 values were recorded every 20 seconds during the hypoxic challenge and during a 3-minute recovery period (during which normal air was inspired). The hypoxia challenge was aborted if SpO2 values fell to less than 85%. FIG. 1 illustrates the effect of 5-HMF during a hypoxic challenge. The data compares the fall in mean SpO2 values of placebo and the 2000 mg dose of 5-HMF prior to a hypoxic challenge given at the 2 hour time point post-dose. The mean change in SpO2 levels from start is shown for each one-minute interval of the 5-minute hypoxic challenge. […] It is noteworthy that the difference between placebo and drug becomes greater as the level of hypoxia in the placebo subjects increases. […] Since the level of hypoxic challenge in this initial human study was moderate (no clinical symptoms of hypoxia were present), the impact of 5-HMF should be even greater when the hypoxic challenge is more extreme.
An illustration of the dose-dependent ability of 5-HMF to impact blood oxygenation during a hypoxic challenge is shown in FIG. 2. Because there are appreciable inter-individual differences in the magnitude of the decline of SpO2 in response to a hypoxic challenge, each subject (both placebo and 5-HMF) was tested for the decline in SpO2 at the 5 minute time point for both (i) the challenge given prior to the dose of placebo or 5-HMF and (ii) the challenge given 2 hours after the dose of placebo or 5-HMF. The dotted line in FIG. 2 represents the “baseline” amount of decline occurring during the challenge given prior to dosing placebo or 5-HMF. The results of the decline in SpO2 for each subject at the end the challenge given 2 hours post-dose results were compared to the subject's baseline amount. Thus each subject acted as his/her own control. The blue dots represent individual subject scores and the horizontal black line is the mean SpO2 change relative to the pre-dose hypoxic challenge.

In a further data set the test system is mice. Conditions: simulated altitude of 9,500 meters; cited from earlier work.
For data set [2], the system named is sickle cell disease mouse model. Conditions: cited from earlier work.
The conditions of data set [3]: animals.
For data set [4] the following is noted: human, single doses of 300 mg, 1000 mg, 2000 mg and 4000 mg (n=6 per dose). On the procedure: The study was a double-blind, placebo (n=8) controlled single ascending dose (SAD) trial examining 5-HMF doses of 300 mg, 1000 mg, 2000 mg and 4000 mg (n=6 per dose).

Results on one compound are retold here after patent publication US9918958B2, “Treatment for hypoxia” (priority 2011, dated 2018).

The structures appear in SMILES notation.

With `O=Cc1ccc(CO)o1` [5-HMF, 5-hydroxymethyl-2-furfural], in data set [1] (300 mg dose, 2 hours post-dose), the “effect on blood oxygen saturation during hypoxia challenge compared to placebo” value is “small”. In addition, the “mean change in ending SpO2 levels relative to the pre-dose hypoxic challenge” value in data set [1] (1000 mg dose, 2 hours post-dose, 5 minute time point of challenge) is given as “approximately 2.5 unit”. For the same compound, the “fall in mean SpO2 after one minute of inhalation of hypoxic air” value in data set [1] (2000 mg dose, challenge at 2 hour post-dose, 12% oxygen) is listed as 5 units. The “effect on SpO2 during hypoxic challenge relative to placebo” value in data set [1] (2000 mg dose, challenge at 2 hour post-dose, from one minute on for the remainder of the 5-minute challenge) is “less severe decrease in SpO2 during the hypoxic challenge”. Also, the “effect on blood oxygen saturation during hypoxia challenge compared to placebo” value in data set [1] (all dose levels (300-4000 mg), 2 hours post-dose) is on record as “increased the blood oxygen saturation of the test subjects compared to placebo at all dose levels”. Moreover, the “difference from placebo of the most active dose levels” value in data set [1] (top three doses (1000, 2000, 4000 mg), p=0.0498) is on record as “statistically significant”. In the data set on mice, the “survival under hypobaric hypoxia” value was “increase survival of mice”. Also, in data set [2], the “P50 of SCD Hb” value was “lower P50 (left shift)” and the “protection against lethal effects of hypoxia” value is reported as “provides in vivo protection against the lethal effects of hypoxia”. Further, the “safety window suggested by repeat dose animal toxicology and safety data” value in data set [3] is listed as “wide safety window in humans is likely”. Also, the safety and tolerability result in data set [4] was “safe and well tolerated”.
